In patent US12649723B2, “Carbonohydrazonoyl dicyanide compounds comprising 2 or more aryl or heteroaryl connected via linker and use thereof” (KOREA INSTITUTE OF SCIENCE AND TECHNOLOGY, priority 2020, dated 2026):

How the values were obtained:
tau protein = molecular target: T1, tau protein (Homo sapiens, UniProt P10636); assay: Tau-BiFC cell model: inhibition of tau protein aggregation; format: cell-based; conditions: for remaining activity at 10 µM / remaining activity at 3 µM: 48 h, Forskolin-only group = 100% tau protein-aggregated state; for remaining activity at 10 µM: compound 10 μM, BiFC fluorescence, read-out: Response (% @10 μM); for IC50: Tau BiFC in cells, with Forskolin 30 μM, 48 hours; for remaining activity at 3 µM: compounds marked *: measured at 3 μM, read-out: Response
T1 construct: fused on or other part: Split fluorescent-protein halves for BiFC are fused to tau; In the published tau-BiFC line these are Venus VN173 and VC155
T1 sequence (P10636 2-441 isoform P10636-8 limits assumed): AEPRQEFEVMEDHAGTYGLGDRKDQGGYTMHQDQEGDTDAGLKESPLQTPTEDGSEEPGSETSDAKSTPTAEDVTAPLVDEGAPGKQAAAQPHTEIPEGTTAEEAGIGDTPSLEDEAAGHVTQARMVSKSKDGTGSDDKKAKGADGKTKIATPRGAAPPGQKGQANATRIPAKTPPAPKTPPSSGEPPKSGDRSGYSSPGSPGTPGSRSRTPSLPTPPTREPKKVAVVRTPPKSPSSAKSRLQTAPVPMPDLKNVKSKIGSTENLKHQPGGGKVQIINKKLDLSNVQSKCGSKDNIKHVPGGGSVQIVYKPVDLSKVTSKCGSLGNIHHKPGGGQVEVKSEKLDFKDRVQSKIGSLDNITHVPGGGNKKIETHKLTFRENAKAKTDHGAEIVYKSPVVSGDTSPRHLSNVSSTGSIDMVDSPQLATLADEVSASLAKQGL
Protocol: (§1) In order to select novel tau protein aggregation-inhibiting substances, tau-BiFC cell model, in which formation of tau oligomers in living cells is easily observed, was used. Tau-BiFC cells were aliquoted into a 384-well plate. On the next day, the cells were treated with each of the compounds prepared according to Examples 1 to 175 at concentrations of 1 μM, 3 μM, and 10 μM, together with Forskolin (at a treatment concentration of 30 μM), which is a compound inducing tau protein aggregation by activating tau […] PKA. After 48 hours, nuclei in the cells were stained using Hoechst (at a treatment concentration of 2 μg/mL), and BiFC fluorescence intensity was automatically measured using Operetta (PerkinElmer) to count stained nuclei in each well out of the entire well plate. The group treated only with Forskolin, which induces tau protein aggregation, was set to a reference point of a 100% tau protein-aggregated state, and the effects of the compounds were confirmed using the equation “BiFC fluorescence intensity due to compound synthesized according to embodiment of present invention/(fluorescence intensity of control group treated only with Forskolin inducing tau protein aggregation−fluorescence intensity of untreated control group)×100”. Furthermore, the degree of cytotoxicity induced by the newly synthesized compound was also measured based on the 100% cell viability of the group treated only with Forskolin as a reference, and the cytotoxicity value of each compound was calculated using the equation “(number of stained nuclei in group treated with compound/number of stained nuclei in group treated with Forskolin)×100”. Based on the treatment results, substances inhibiting intracellular tau protein aggregation were selected from a series of candidate groups showing a tau protein aggregation inhibition rate of 70% or more and cell viability of 100% at a compound treatment concentration of 10 μM or more.
(§2) In order to evaluate dose-dependent tau protein aggregation inhibition effects of the compounds selected according to Experimental Example 1 on tau protein aggregation, tau-BiFC cells were treated with the selected compounds at concentrations of 0.03 μM, […], 0.3 μM, 1 μM, 3 μM, 10 μM, and 30 μM, respectively, together with Forskolin (at a treatment concentration of 30 μM), which is a tau protein aggregation inducing substance. After 48 hours, tau protein aggregation reaction and degrees of cytotoxicity were analyzed by observing images of the cells. IC50 and toxicity of the compounds were analyzed by way of nonlinear regression analysis of prism software (Graph Pad).

Tau-BiFC cells = assay: Cell viability (cytotoxicity) in tau-BiFC cells, count of stained nuclei; format: cell-based; conditions: Forskolin-only group = 100% cell viability; for Cell viability (% @10 μM): compound 10 μM; for Cell viability: compounds marked *: measured at 3 μM
Protocol: as §1, §2

SMILES | remaining activity at 10 µM (tau protein) | IC50 (tau protein) | Cell viability (% @10 μM) (Tau-BiFC cells) | remaining activity at 3 µM (tau protein) | Cell viability (Tau-BiFC cells)
N#CC(C#N)=NNc1ccc(Oc2ccc(C(F)(F)F)nc2)cc1 [Compound 89, (4-(6-(trifluoromethyl)pyridin-3-yloxy)phenyl)carbonohydrazonoyl dicyanide] | 0% | 2400 nM | 32.5% | – | –
COc1cc(C(=O)Nc2ccc(C)nc2)ccc1NN=C(C#N)C#N [Compound 57, (2-methoxy-4-(6-methylpyridin-3-ylcarbamoyl)phenyl)carbonohydrazonoyl dicyanide] | 51.7% | – | 108.6% | – | –
N#CC(C#N)=NNc1ccc(NC(=O)c2cnc3ccccc3n2)nc1 [Compound 32, (6-(quinoxaline-2-carboxamido)pyridin-3-yl)carbonohydrazonoyl dicyanide] | 0% | 310 nM | 145.3% | – | –
N#CC(C#N)=NNc1ccc(OCc2nc3ccccc3[nH]2)cc1 [Compound 126, (4-((1H-benzo[d]imidazol-2-yl)methoxy)phenyl)carbonohydrazonoyl dicyanide] | 0% | 100 nM | 133.2% | – | –
N#CC(C#N)=NNc1ccc(NS(=O)(=O)c2cccnc2)nc1 [Compound 60, (6-(pyridin-3-sulfonamido)pyridin-3-yl)carbonohydrazonoyl dicyanide] | 90.2% | – | 116.9% | – | –
N#CC(C#N)=NNc1ccc(NC(=O)c2cccc(F)c2)nc1 [Compound 18, (6-(3-fluorobenzamido)pyridin-3-yl)carbonohydrazonoyl dicyanide] | 0% | 660 nM | 113% | – | –
N#CC(C#N)=NNc1ccc(Oc2ccccn2)cc1 [Compound 83, (4-(pyridin-2-yloxy)phenyl)carbonohydrazonoyl dicyanide] | 0% | 1140 nM | 104% | – | –
N#CC(C#N)=NNc1ccc(C(=O)Nc2cncnc2)nc1 [Compound 42, (6-(pyrimidin-5-ylcarbamoyl)pyridin-3-yl)carbonohydrazonoyl dicyanide] | 0% | – | 123.1% | – | –
COc1cc(NN=C(C#N)C#N)ccc1OCc1cscn1 [Compound 167, (3-methoxy-4-(thiazol-4-ylmethoxy)phenyl)carbonohydrazonoyl dicyanide] | – | 10 nM | – | -38% | 118%
Cc1cnc(NC(=O)c2ccc(NN=C(C#N)C#N)c(F)c2)cn1 [Compound 56, (2-fluoro-4-(5-methylpyrazin-2-ylcarbamoyl)phenyl)carbonohydrazonoyl dicyanide] | 0% | 1850 nM | 129.9% | – | –
Cc1cncc(NC(=O)c2ccc(NN=C(C#N)C#N)cn2)n1 [Compound 41, (6-(6-methylpyrazin-2-ylcarbamoyl)pyridin-3-yl)carbonohydrazonoyl dicyanide] | 0% | – | 115.2% | – | –
Cc1ccc(S(=O)(=O)Nc2ccc(NN=C(C#N)C#N)cn2)cc1 [Compound 63, (6-(4-methylphenylsulfonamido)pyridin-3-yl)carbonohydrazonoyl dicyanide] | 11.5% | – | 136.7% | – | –
CN(N=C(C#N)C#N)c1ccc(Oc2ccccc2)c(F)c1 [Compound 77, (3-fluoro-4-phenoxyphenyl)(methyl)carbonohydrazonoyl dicyanide] | 84.8% | – | 91.6% | – | –
N#CC(C#N)=NNc1ccc(Oc2ncccn2)cc1 [Compound 91, (4-(pyrimidin-2-yloxy)phenyl)carbonohydrazonoyl dicyanide] | 0% | 3120 nM | 117% | – | –
N#CC(C#N)=NNc1ccc(NC(=O)c2cscn2)nc1 [Compound 112, (6-(thiazole-4-carboxamido)pyridin-3-yl)carbonohydrazonoyl dicyanide] | 0% | 200 nM | 158.2% | – | –
N#CC(C#N)=NNc1ccc(OCc2cnccn2)cc1 [Compound 125, (4-(pyrazin-2-ylmethoxy)phenyl)carbonohydrazonoyl dicyanide] | 0% | 2300 nM | 140.5% | – | –
COc1cc(C(=O)Nc2cnc(C)cn2)ccc1NN=C(C#N)C#N [Compound 51, (2-methoxy-4-(5-methylpyrazin-2-ylcarbamoyl)phenyl)carbonohydrazonoyl dicyanide] | 45.4% | – | 107.1% | – | –
N#CC(C#N)=NNc1ccc(C(=O)Nc2cccnc2)nc1 [Compound 40, (6-(pyridin-3-ylcarbamoyl)pyridin-3-yl)carbonohydrazonoyl dicyanide] | 7.9% | – | 130.7% | – | –
COc1cc(NN=C(C#N)C#N)ccc1C(=O)Nc1cncc(C)n1 [Compound 105, (3-methoxy-4-(6-methylpyrazin-2-ylcarbamoyl)phenyl)carbonohydrazonoyl dicyanide] | 0% | 400 nM | 142.9% | – | –
Cn1cc(S(=O)(=O)Nc2ccc(NN=C(C#N)C#N)cn2)cn1 [Compound 61, (6-(1-methyl-1H-pyrazole-4-sulfonamido)pyridin-3-yl)carbonohydrazonoyl dicyanide] | 109% | – | 112.7% | – | –
Cc1cnc(C(=O)Nc2ccc(NN=C(C#N)C#N)cc2F)cn1 [Compound 7, (3-fluoro-4-(5-methylpyrazine-2-carboxamido)phenyl)carbonohydrazonoyl dicyanide] | 0% | – | 30.6% | – | –
N#CC(C#N)=NNc1ccc(C(=O)Nc2ccc(Cl)cc2)nc1 [Compound 37, (6-(4-chlorophenylcarbamoyl)pyridin-3-yl)carbonohydrazonoyl dicyanide] | 62.7% | – | 117.8% | – | –
Cc1ccc(COc2ccc(NN=C(C#N)C#N)cn2)cc1 [Compound 99, (6-(4-methylbenzyloxy)pyridin-3-yl)carbonohydrazonoyl dicyanide] | 0% | 240 nM | 29.2% | – | –
N#CC(C#N)=NNc1ccc(NS(=O)(=O)c2ccc(F)cc2)nc1 [Compound 64, (6-(4-fluorophenylsulfonamido)pyridin-3-yl)carbonohydrazonoyl dicyanide] | 56% | – | 114.2% | – | –
Cc1cccc(C(=O)Nc2ccc(NN=C(C#N)C#N)cn2)c1 [Compound 24, (6-(3-methylbenzamido)pyridin-3-yl)carbonohydrazonoyl dicyanide] | 0% | < 300 nM | 103.9% | – | –
Cc1cncc(NC(=O)c2ccc(NN=C(C#N)C#N)cc2C)n1 [Compound 54, (3-methyl-4-(6-methylpyrazin-2-ylcarbamoyl)phenyl)carbonohydrazonoyl dicyanide] | 8.3% | – | 116% | – | –
N#CC(C#N)=NNc1ccc(Oc2cnccn2)cc1 [Compound 84, (4-(pyrazin-2-yloxy)phenyl)carbonohydrazonoyl dicyanide] | 0% | 2120 nM | 111.4% | – | –
Cc1cc(NN=C(C#N)C#N)ccc1OCc1ccccc1 [Compound 141, (4-(benzyloxy)-3-methylphenyl)carbonohydrazonoyl dicyanide] | – | 866 nM | – | -25% | 109%
N#CC(C#N)=NNc1ccc(Oc2ccccc2)c(C(F)(F)F)c1 [Compound 73, (4-phenoxy-3-(trifluoromethyl)phenyl)carbonohydrazonoyl dicyanide] | 0% | – | 49.6% | – | –
N#CC(C#N)=NNc1ccc(C(=O)Nc2cncnc2)cc1 [Compound 50, (4-(pyrimidin-5-ylcarbamoyl)phenyl)carbonohydrazonoyl dicyanide] | 86.6% | – | 116.4% | – | –
